# Measured values from patent US9339508B2, “Use of 3-methoxy-pregnenolone for the preparation of a drug for treating a traumatic brain injury” (MAPREG, priority 2003, dated 2016).
# Key:
# [1] = Pharmacokinetics by GC/MS, brain and spinal cord; assay type: in vivo, rat; conditions: 12 mg/kg subcutaneous in sesame oil; 1, 4, 8, 24 hours
# Method: FIG. 9: Kinetics of the appearance of 3-methoxy-PREG (43B) in rat brain and spinal cord following subcutaneous injection of 43B (12 mg/kg) in a sesame oil solution.
# The pharmacokinetics of the molecules tested in vivo are evaluated using gas chromatography/mass spectrometry (GC/MS) assays.
# [2] = test system: α-tubulin in rat hippocampus; experiment: Microtubule dynamics in rat hippocampus (Tyr/Glu-Tub ratio, Acet-Tub); assay type: in vivo; conditions: 10 mg/kg subcutaneously, single administration
# Source text: Mean±SEM, n=6 per group. **P<0.01, *P<0.5 vs sesame oil.
# The effects produced by neurosteroids were compared with those produced by acute administration of the antidepressant drug fluoxetine (selective serotonin reuptake inhibitor SSRI).
# Neurosteroids and 3-Methoxy-PREG (43B) Levels
# [3] = test system: PC12 cells; experiment: Neuritic growth / sprouting of PC12 cells in the presence of NGF; assay type: cell-based, rat; conditions: increasing concentrations, 2, 5 and 8 days of culture, NGF 10 ng/ml
# Method: Each molecule was tested in three culture wells. Measurements were taken for 200 cells per well using Scion Image software.
# Neurite (neurite) length was measured for 200 cells per well after 2, 5, and 8 days of culture.
# To rest the effect of selected molecules on neuritic growth, we first used the PC12 line, which has long been employed in neurobiological research. In the presence of NOF (nerve growth factor), the cells of this line, which arise from a rat pheochromocytoma, form neuritic extensions containing MAP-associated microtubules.
# Stimulation of neuritic sprouting is conducted on PC12 cells differentiated in the presence of NGF (10 ng/ml) and the steroid being tested (30 μM) for 3 days. For each condition, the average length of the longest 200 neurites in each cell is measured simultaneously for 3 cultures.
# [4] = test system: transgenic mice expressing the longest isoform of human tau protein; experiment: RotaRod motor incoordination in transgenic tau mice; assay type: in vivo, mouse; conditions: subcutaneous implant releasing 0.38 mg per day for 90 days
# Source text: FIG. 8: Effect of molecule 43B on the motor incoordination of transgenic mice expressing the longest isoform of human tau protein in their neurons. […] The maximum speed of rotation of the RotaRod drum before the […] falls is a measurement of motor coordination (higher values correspond to a better treatment effect).
# In order to evaluate the therapeutic potential of 433 to treat Alzheimer-type neurodegenerative diseases, a homozygous transgenic line of mice, such as described by Götz (EMBO J. 1995; 14(7):1304-13), can be used.
# These mice express the longest human tau protein isoform. They present symptoms of neurological dysfunction expressed as muscular weakness and a reduction in motor coordination which correlate histologically with the appearance of abnormal neurites and hyperphosphorylated tau proteins as is seen in Alzheimer's disease. This pathological phosphorylation decreases the affinity of tau for microtubules and favors its aggregation.
# A breeding program was undertaken at Bicêtre and genotyping made it possible to select mice homozygous for the transgene. […] The implants released 0.38 mg of steroid per day for 90 days. The progression of motor incoordination was followed by repeated RotaRod tests.
# [5] = biological target: T1, human progesterone receptor (PR) (Homo sapiens, UniProt P06401); experiment: Test of progesterone receptor agonist activity (luciferase transactivation, HEK293T); assay type: cell-based; conditions: 24 hours, increasing amounts
# T1 construct: expressed in transfected cells; host or cells: HEK293T cells
# T1 sequence (P06401 1-933): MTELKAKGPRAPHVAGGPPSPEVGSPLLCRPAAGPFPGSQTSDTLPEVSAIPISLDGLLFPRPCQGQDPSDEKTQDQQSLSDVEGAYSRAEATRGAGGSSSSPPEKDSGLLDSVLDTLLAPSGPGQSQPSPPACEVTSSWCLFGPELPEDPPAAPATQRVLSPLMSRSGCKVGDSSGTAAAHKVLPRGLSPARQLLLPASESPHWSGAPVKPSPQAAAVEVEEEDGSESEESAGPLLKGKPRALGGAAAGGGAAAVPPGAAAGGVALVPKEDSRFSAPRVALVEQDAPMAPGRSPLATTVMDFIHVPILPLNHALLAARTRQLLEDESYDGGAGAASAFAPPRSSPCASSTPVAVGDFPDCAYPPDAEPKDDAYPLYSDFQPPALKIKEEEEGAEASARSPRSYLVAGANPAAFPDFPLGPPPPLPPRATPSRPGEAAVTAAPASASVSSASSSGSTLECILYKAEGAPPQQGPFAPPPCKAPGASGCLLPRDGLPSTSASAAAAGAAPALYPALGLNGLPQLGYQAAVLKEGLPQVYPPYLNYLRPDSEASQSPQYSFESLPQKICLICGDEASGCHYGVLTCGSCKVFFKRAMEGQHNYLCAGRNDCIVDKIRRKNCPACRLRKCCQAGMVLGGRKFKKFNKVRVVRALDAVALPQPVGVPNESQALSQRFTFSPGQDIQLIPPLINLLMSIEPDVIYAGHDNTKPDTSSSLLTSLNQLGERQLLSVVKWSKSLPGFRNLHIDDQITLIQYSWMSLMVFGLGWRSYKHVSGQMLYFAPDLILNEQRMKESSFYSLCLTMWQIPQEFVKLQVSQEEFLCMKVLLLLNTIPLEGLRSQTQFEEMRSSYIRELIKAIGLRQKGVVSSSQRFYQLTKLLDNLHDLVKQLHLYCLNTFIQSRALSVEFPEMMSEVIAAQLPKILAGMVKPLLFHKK
# Method: The main experimental setting used is the following: HEK293T cells were transiently transfected, using calcium phosphate precipitation technology, with expression receptors pSG5hPR (which permits expression of human progesterone receptor (PR)), pFC31-luc (contains the luciferase gene under the control of the MTV promoter, which is in turn activated by binding of a progestin to progesterone receptor) and pcbetagal (which permits expression of betagalactosidase), and cultured during 24 hours with increasing amounts of various compositions: • 1. […] Test of progesterone receptor […] activity: transfected cells were cultured with progesterone (1 nM) and increasing amounts of RU486 (a well-known progesterone receptor antagonist) or 3-methoxy-pregnenolone. • With this setting, a compound with progesterone receptor antagonist activity competes with progesterone for the occupation of progesterone receptor and results in a progressive loss of transactivation activity when the amount of this compound is increased compared to progesterone. Results
smiles,measurement,setting,value
"CO[C@H]1CC[C@@]2(C)C(=CC[C@H]3[C@@H]4CC[C@H](C(C)=O)[C@@]4(C)CC[C@@H]32)C1 [3-methoxy-PREG, 3β-methoxy-pregna-5-ene-20-one]",penetration into spinal cord and brain,[1],penetrates rapidly into the spinal cord and the brain
same,Acet-Tub (stable acetylated α-tubulin),[2],significantly decreased
same,Tyr/Glu-Tub ratio,[2]; 3 h,significantly increased
same,increase in the length of neurites,[3],≤ 500%
same,motor dysfunction (RotaRod),[4],beneficial effect on motor dysfunction
same,progesterone receptor agonist activity (transactivation),[5],does not have progesterone receptor agonist activity
